Test results from US20240300937A1, “Substituted 6-(Pyrimidin-4-yl)Quinoline Compounds as Cyclin Dependent Kinase Inhibitors” (BeiGene, Ltd., priority 2022, published 2024).

Legend:
CDK6/Cyclin D3 = CDK6/Cyclin D3 (Homo sapiens (Human), UniProt Q00534); experiment: CDK6/Cyclin D3 kinase TR-FRET inhibition assay; format: biochemical; conditions: 1 mM ATP, Rb (Ser780)-biotin substrate, read-out: CDK6D3 IC50
Procedure: (§1) Compounds disclosed herein were tested for inhibition of CDK4/Cyclin D1 or CDK6/Cyclin D3 kinase in an assay based on the time-resolved fluorescence-resonance energy transfer (TR-FRET) methodology. The assay was carried out in 384-well low volume black plates in a reaction mixture containing CDK4/Cyclin D1 or CDK6/Cyclin D3, 1 mM ATP, 0.15 μM Rb (Ser780)-biotin substrate and 0-10 μM compound in buffer containing 50 mM HEPES pH7.0, 0.02% NaN3, 0.01% BSA, 0.1 mM Orthovanadate, 50 mM MgCl2, 1 mM DTT and 0.005% Tween-20. The kinase was incubated with compound for 60 minutes at room temperature and the reaction was initiated by the addition of ATP and Rb (Ser780)-biotin substrate. After reaction at room temperature for 120 minutes, an equal volume of stop/detection solution was added according to the manufacture's instruction (Cisbio Bioassays). The stop/detection solution contained Streptavidin-XL665 and Anti-pRb (Ser780) mAb-Eu Cryptate in Detection buffer (Cisbio Bioassays). Plates were incubated at room temperature for 60 minutes, and the TR-FRET signals (ex337 nm, em665 nm/620 nm) were recorded on a PHERAstar FSX plate reader (BMG Labtech). The inhibition percentage of CDK4/Cyclin D1 or CDK6/Cyclin D3 kinase activity in presence of increasing concentrations of compounds was calculated based on the ratio of fluorescence at 665 nm to that at 620 nm. The IC50 for each compound was derived from fitting the data to the four-parameter logistic equation by Dotmatics.

CDK4/Cyclin D1 = CDK4/Cyclin D1 (Homo sapiens (Human), UniProt P11802); experiment: CDK4/Cyclin D1 kinase TR-FRET inhibition assay; format: biochemical; conditions: 1 mM ATP, Rb (Ser780)-biotin substrate, read-out: CDK4D1 IC50
Procedure: as §1

Sequence of CDK6/Cyclin D3 (Q00534 whole entry): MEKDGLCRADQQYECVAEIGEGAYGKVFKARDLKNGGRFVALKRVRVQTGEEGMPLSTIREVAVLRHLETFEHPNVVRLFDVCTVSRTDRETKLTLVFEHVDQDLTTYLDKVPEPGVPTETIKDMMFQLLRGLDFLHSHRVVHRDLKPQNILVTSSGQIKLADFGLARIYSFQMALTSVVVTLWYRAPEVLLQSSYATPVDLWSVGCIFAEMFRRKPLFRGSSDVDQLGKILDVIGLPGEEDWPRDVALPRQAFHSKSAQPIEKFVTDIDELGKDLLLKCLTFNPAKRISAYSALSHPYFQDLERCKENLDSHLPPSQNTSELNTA
Sequence of CDK6/Cyclin D3 (P30281 whole entry partner): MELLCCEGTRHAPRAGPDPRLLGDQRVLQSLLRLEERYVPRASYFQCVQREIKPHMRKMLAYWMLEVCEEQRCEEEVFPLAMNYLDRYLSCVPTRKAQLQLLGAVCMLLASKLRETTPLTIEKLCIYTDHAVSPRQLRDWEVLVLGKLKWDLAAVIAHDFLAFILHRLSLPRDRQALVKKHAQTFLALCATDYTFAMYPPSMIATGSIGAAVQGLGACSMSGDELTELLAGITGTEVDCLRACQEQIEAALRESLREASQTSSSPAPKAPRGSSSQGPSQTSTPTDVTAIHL
Sequence of CDK4/Cyclin D1 (P11802 whole entry): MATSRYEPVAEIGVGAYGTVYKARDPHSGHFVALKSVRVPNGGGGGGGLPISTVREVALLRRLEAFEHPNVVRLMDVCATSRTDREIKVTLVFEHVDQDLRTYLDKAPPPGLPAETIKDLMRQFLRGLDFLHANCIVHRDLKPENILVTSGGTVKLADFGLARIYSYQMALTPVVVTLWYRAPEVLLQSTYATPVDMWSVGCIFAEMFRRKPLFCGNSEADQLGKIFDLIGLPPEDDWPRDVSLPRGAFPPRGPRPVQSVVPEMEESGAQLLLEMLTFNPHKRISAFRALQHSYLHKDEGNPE
Sequence of CDK4/Cyclin D1 (P24385 whole entry partner): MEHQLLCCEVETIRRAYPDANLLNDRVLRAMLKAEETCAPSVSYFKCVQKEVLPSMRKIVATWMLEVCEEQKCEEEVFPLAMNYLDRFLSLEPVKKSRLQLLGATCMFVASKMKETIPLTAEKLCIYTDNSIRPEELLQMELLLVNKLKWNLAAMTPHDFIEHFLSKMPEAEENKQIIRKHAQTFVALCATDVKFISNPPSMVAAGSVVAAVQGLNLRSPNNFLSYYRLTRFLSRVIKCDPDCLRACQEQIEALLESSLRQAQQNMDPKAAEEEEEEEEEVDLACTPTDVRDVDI

IC50 (CDK6/Cyclin D3) [nM] | IC50 (CDK4/Cyclin D1) [nM] | Compound
361 | 19 | CC(C)c1c(CN2CC[C@@H](F)C2)cnc2ccc(-c3nc(N[C@@H]4CCOC[C@H]4O)ncc3F)cc12 [Example 23, (3S,4R)-4-((5-fluoro-4-(3-(((R)-3-fluoropyrrolidin-1-yl)methyl)-4-isopropylquinolin-6-yl)pyrimidin-2-yl)amino)tetrahydro-2H-pyran-3-ol]
620 | 20 | CC(C)c1c(CNC[C@H]2CCCO2)cnc2ccc(-c3nc(N[C@@H]4CCOC[C@H]4O)ncc3F)cc12 [Example 24, (3S,4R)-4-((5-fluoro-4-(4-isopropyl-3-(((((R)-tetrahydrofuran-2-yl)methyl)amino)methyl)quinolin-6-yl)pyrimidin-2-yl)amino)tetrahydro-2H-pyran-3-ol]
224 | 8.3 | CC(C)c1c(CNC2CC2)cnc2ccc(-c3nc(N[C@@H]4CCOC[C@H]4O)ncc3F)cc12 [Example 25, (3S,4R)-4-((4-(3-((cyclopropylamino)methyl)-4-isopropylquinolin-6-yl)-5-fluoropyrimidin-2-yl)amino)tetrahydro-2H-pyran-3-ol]
990 | 33 | CC(C)c1c(CNC2CCCC2)cnc2ccc(-c3nc(N[C@@H]4CCOC[C@H]4O)ncc3F)cc12 [Example 26, (3S,4R)-4-((4-(3-((cyclopentylamino)methyl)-4-isopropylquinolin-6-yl)-5-fluoropyrimidin-2-yl)amino)tetrahydro-2H-pyran-3-ol]
828 | 23 | CC(C)c1c(CNC[C@H]2CCOC2)cnc2ccc(-c3nc(N[C@@H]4CCOC[C@H]4O)ncc3F)cc12 [Example 27, (3S,4R)-4-((5-fluoro-4-(4-isopropyl-3-(((((R)-tetrahydrofuran-3-yl)methyl)amino)methyl)quinolin-6-yl)pyrimidin-2-yl)amino)tetrahydro-2H-pyran-3-ol]
703 | 19 | CC(C)c1c(CNC2CCCCC2)cnc2ccc(-c3nc(N[C@@H]4CCOC[C@H]4O)ncc3F)cc12 [Example 28]
860 | 20 | CC(C)c1c(CNC2CCOCC2)cnc2ccc(-c3nc(N[C@@H]4CCOC[C@H]4O)ncc3F)cc12 [Example 29, (3S,4R)-4-((5-fluoro-4-(4-isopropyl-3-(((tetrahydro-2H-pyran-4-yl)amino)methyl)quinolin-6-yl)pyrimidin-2-yl)amino)tetrahydro-2H-pyran-3-ol]
550 | 11 | CC(C)c1c(CN[C@@H]2CCCOC2)cnc2ccc(-c3nc(N[C@@H]4CCOC[C@H]4O)ncc3F)cc12 [Example 30, (3S,4R)-4-((5-fluoro-4-(4-isopropyl-3-((((R)-tetrahydro-2H-pyran-3-yl)amino)methyl)quinolin-6-yl)pyrimidin-2-yl)amino)tetrahydro-2H-pyran-3-ol]
275 | 25 | COCc1cnc2ccc(-c3nc(N[C@@H]4CCOC[C@H]4O)ncc3F)cc2c1C(C)C [Example 31, (3S,4R)-4-((5-fluoro-4-(4-isopropyl-3-(methoxymethyl)quinolin-6-yl)pyrimidin-2-yl)amino)tetrahydro-2H-pyran-3-ol]
484 | 11 | CC(C)c1c(CN[C@H]2CCOC2)cnc2ccc(-c3nc(N[C@@H]4CCOC[C@H]4O)ncc3F)cc12 [Example 32, (3S,4R)-4-((5-fluoro-4-(4-isopropyl-3-((((S)-tetrahydrofuran-3-yl)amino)methyl)quinolin-6-yl)pyrimidin-2-yl)amino)tetrahydro-2H-pyran-3-ol]
792 | 22 | CC(C)c1c(CNC[C@@H]2CCOC2)cnc2ccc(-c3nc(N[C@@H]4CCOC[C@H]4O)ncc3F)cc12 [Example 33, (3S,4R)-4-((5-fluoro-4-(4-isopropyl-3-(((((S)-tetrahydrofuran-3-yl)methyl)amino)methyl)quinolin-6-yl)pyrimidin-2-yl)amino)tetrahydro-2H-pyran-3-ol]
783 | 27 | CC(C)c1c(CNC[C@@H]2CCCO2)cnc2ccc(-c3nc(N[C@@H]4CCOC[C@H]4O)ncc3F)cc12 [Example 34, (3S,4R)-4-((5-fluoro-4-(4-isopropyl-3-(((((S)-tetrahydrofuran-2-yl)methyl)amino)methyl)quinolin-6-yl)pyrimidin-2-yl)amino)tetrahydro-2H-pyran-3-ol]
592 | 16 | CC(C)c1c(CN[C@@H]2CCOC2)cnc2ccc(-c3nc(N[C@@H]4CCOC[C@H]4O)ncc3F)cc12 [Example 35, (3S,4R)-4-((5-fluoro-4-(4-isopropyl-3-((((R)-tetrahydrofuran-3-yl)amino)methyl)quinolin-6-yl)pyrimidin-2-yl)amino)tetrahydro-2H-pyran-3-ol]
224 | 14 | CC(C)c1c(CN2CCOCC23CC3)cnc2ccc(-c3nc(N[C@@H]4CCOC[C@H]4O)ncc3F)cc12 [Example 36, (3S,4R)-4-((4-(3-((7-oxa-4-azaspiro[2.5]octan-4-yl)methyl)-4-isopropylquinolin-6-yl)-5-fluoropyrimidin-2-yl)amino)tetrahydro-2H-pyran-3-ol]
945 | 27 | CC(C)c1c(CN[C@H]2CCCOC2)cnc2ccc(-c3nc(N[C@@H]4CCOC[C@H]4O)ncc3F)cc12 [Example 37, (3S,4R)-4-((5-fluoro-4-(4-isopropyl-3-((((S)-tetrahydro-2H-pyran-3-yl)amino)methyl)quinolin-6-yl)pyrimidin-2-yl)amino)tetrahydro-2H-pyran-3-ol]
176 | 4.4 | CC(C)c1c(CN)cnc2ccc(-c3nc(N[C@@H]4CCOC[C@H]4O)ncc3F)cc12 [Example 38, (3S,4R)-4-((4-(3-(aminomethyl)-4-isopropylquinolin-6-yl)-5-fluoropyrimidin-2-yl)amino)tetrahydro-2H-pyran-3-ol]
750 | 25 | CC(C)c1c(CN[C@H]2CCOC2)cnc2ccc(-c3nc(N[C@@H]4CCOC[C@H]4O)ncc3F)cc12 [Example 39, (3S,4R)-4-((5-fluoro-4-(4-isopropyl-3-((((S)-tetrahydrofuran-3-yl)amino)methyl)quinolin-6-yl)pyrimidin-2-yl)amino)tetrahydro-2H-pyran-3-ol]
759 | 33 | CC(C)c1c(CN[C@@H]2CCOC2)cnc2ccc(-c3nc(N[C@@H]4CCOC[C@H]4O)ncc3F)cc12 [Example 40, (3S,4R)-4-((5-fluoro-4-(4-isopropyl-3-((((R)-tetrahydrofuran-3-yl)amino)methyl)quinolin-6-yl)pyrimidin-2-yl)amino)tetrahydro-2H-pyran-3-ol]
170 | 10 | CC(C)c1c([C@H](C)O)cnc2ccc(-c3nc(N[C@@H]4CCOC[C@H]4O)ncc3F)cc12 [Example 41, (3S,4R)-4-((5-fluoro-4-(3-((S)-1-hydroxyethyl)-4-isopropylquinolin-6-yl)pyrimidin-2-yl)amino)tetrahydro-2H-pyran-3-ol]
480 | 32 | CC(C)c1c([C@@H](C)O)cnc2ccc(-c3nc(N[C@@H]4CCOC[C@H]4O)ncc3F)cc12 [Example 42, (3S,4R)-4-((5-fluoro-4-(3-((R)-1-hydroxyethyl)-4-isopropylquinolin-6-yl)pyrimidin-2-yl)amino)tetrahydro-2H-pyran-3-ol]
533 | 41 | CC(C)c1c(CNc2cnn(C)c2)cnc2ccc(-c3nc(N[C@@H]4CCOC[C@H]4O)ncc3F)cc12 [Example 43, (3S,4R)-4-((5-fluoro-4-(4-isopropyl-3-(((1-methyl-1H-pyrazol-4-yl)amino)methyl)quinolin-6-yl)pyrimidin-2-yl)amino)tetrahydro-2H-pyran-3-ol]
475 | 25 | CC(C)c1c(CN2CCCOCC2)cnc2ccc(-c3nc(N[C@@H]4CCOC[C@H]4O)ncc3F)cc12 [Example 44, (3S,4R)-4-((4-(3-((1,4-oxazepan-4-yl)methyl)-4-isopropylquinolin-6-yl)-5-fluoropyrimidin-2-yl)amino)tetrahydro-2H-pyran-3-ol]
286 | 22 | CC(C)c1c(CNc2ncccn2)cnc2ccc(-c3nc(N[C@@H]4CCOC[C@H]4O)ncc3F)cc12 [Example 45, (3S,4R)-4-((5-fluoro-4-(4-isopropyl-3-((pyrimidin-2-ylamino)methyl)quinolin-6-yl)pyrimidin-2-yl)amino)tetrahydro-2H-pyran-3-ol]
1040 | 65 | COc1ccc(NCc2cnc3ccc(-c4nc(N[C@@H]5CCOC[C@H]5O)ncc4F)cc3c2C(C)C)cc1 [Example 46, (3S,4R)-4-((5-fluoro-4-(4-isopropyl-3-(((4-methoxyphenyl)amino)methyl)quinolin-6-yl)pyrimidin-2-yl)amino)tetrahydro-2H-pyran-3-ol]
